Converted amounts (≈) assume the structure as drawn.
Conditions: buffer; pH 7.4; 200.0 µM
With `Fc1ccccc1C1CCN(Cc2nc(COc3ccccc3)no2)C1` (stereo not given) the solubility kinetic was 0.0127 mg/mL (≈ 35.9 µM).
`O=C(Nc1cc(Cl)cc(Cl)c1)Nc1cnccn1` showed a solubility kinetic of 0.0002 mg/mL (≈ 0.706 µM).
With `COc1ccc(CCC(C)NCCc2ccc(Cl)cc2Cl)cc1` (stereo not given) the solubility kinetic was 0.0214 mg/mL (≈ 60.7 µM).
In the case of `CCOc1ccc(CC(=O)N2CCN=C2SC)cc1`, the solubility kinetic is reported as greater than 0.0418 mg/mL.
`Cc1ccccc1OCc1nc2ccccc2n1C` gave a solubility kinetic of 0.0031 mg/mL (≈ 12.3 µM).
Work on `O=C(Nc1cc(-c2ccccc2)cs1)c1ccco1` yielded a solubility kinetic of 0.0047 mg/mL (≈ 17.5 µM).
`O=C(CC(c1ccccc1)c1ccccc1)Nc1ccc(O)cc1` showed a solubility kinetic of 0.0317 mg/mL (≈ 99.9 µM).
For `Cc1cc(Br)c2c(c1)C1(OCCO1)C(=O)N2`, the solubility kinetic was greater than 0.0426 mg/mL.
Work on `O=C(O)C1CCCN(C(=O)c2cccc3ccccc23)C1` (stereo not given) yielded a solubility kinetic greater than 0.0425 mg/mL.
Molecule `O=S(=O)(NCCc1ccccc1)c1cccs1` has a solubility kinetic of 0.034 mg/mL (≈ 127 µM).
In the case of `Cn1c(SCC(=O)N2CCCC2=O)nc2ccccc21`, the solubility kinetic is reported as greater than 0.0434 mg/mL.
For `COc1ccc2[nH]cc(/C=C/C(=O)c3ccccc3)c2c1`, the solubility kinetic was 0.0029 mg/mL (≈ 10.5 µM).
Work on `Cc1c(C)n(Cc2ccccc2)c2ncnc(Cl)c12` yielded a solubility kinetic of 0.0003 mg/mL (≈ 1.1 µM).
For `Cc1[nH]n2cnnc2c(=O)c1Br.O=S(=O)(O)O`, the solubility kinetic was greater than 0.0491 mg/mL.
With `CC(C)N(CCn1cnc2c([nH]c3ccccc32)c1=O)C(C)C` the solubility kinetic was 0.0245 mg/mL (≈ 78.4 µM).
`CC(NC(=O)COC(=O)CCC(=O)c1ccc(F)cc1)c1ccccc1` (stereo not given) showed a solubility kinetic greater than 0.0536 mg/mL.
For `COc1ccc(Nc2ncc(F)c(N3CCOCC3)n2)cc1`, the solubility kinetic was 0.0038 mg/mL (≈ 12.5 µM).
For `O=C(COC(=O)COc1ccccc1)Nc1ncc(Cl)cc1Cl`, the solubility kinetic was 0.047 mg/mL (≈ 132 µM).
Molecule `O=C1c2ccsc2SCCN1Cc1cccc(F)c1` has a solubility kinetic of 0.0426 mg/mL (≈ 145 µM).
With `Cc1c(C(=O)NCC2CCCO2)oc2c(Cl)cccc12` (stereo not given) the solubility kinetic was greater than 0.0441 mg/mL.
In the case of `Cc1ccc(Oc2ccc(C(F)(F)F)cc2[N+](=O)[O-])c([N+](=O)[O-])n1`, the solubility kinetic is reported as 0.0072 mg/mL (≈ 21 µM).
With `O=C(Nc1ccncc1)Nc1cccc(F)c1` the solubility kinetic was greater than 0.0347 mg/mL.
With `O=C(c1c(F)cccc1F)N(C1CCCCC1)C1CCCCC1` the solubility kinetic was 0.001 mg/mL (≈ 3.11 µM).
With `Cc1ccc2nc(-c3ccc(-c4ccccn4)s3)cn2c1` the solubility kinetic was 0.0032 mg/mL (≈ 11 µM).
Work on `Cc1c(-c2ccccc2)cnc2c(C)cccc12` yielded a solubility kinetic of less than 0.0005 mg/mL.
With `OCc1cccc[n+]1CCc1ccccc1.[Br-]` the solubility kinetic was greater than 0.0441 mg/mL.
`N#C/C(=C\Nc1ccc(Cl)cn1)S(=O)(=O)c1ccccn1` showed a solubility kinetic of 0.0037 mg/mL (≈ 11.5 µM).
Molecule `CC(OC(=O)c1ccc(Cl)nc1)C(=O)NC(C)(C)C` (stereo not given) has a solubility kinetic greater than 0.0427 mg/mL.
Molecule `Nc1ccccc1C(=O)N1CCC(O)(c2ccc(Cl)cc2)CC1` has a solubility kinetic of 0.0239 mg/mL (≈ 72.2 µM).
`CN(Cc1ccccc1)S(=O)(=O)c1cc2c3c(c1)CCN3C(=O)CC2` showed a solubility kinetic of 0.0036 mg/mL (≈ 10.1 µM).
Work on `CC(C)N1CC(C(=O)Nc2ccc(Cl)c([N+](=O)[O-])c2)CC1=O` (stereo not given) yielded a solubility kinetic of 0.0454 mg/mL (≈ 139 µM).
`NC(=S)c1c(Cl)cc(C(F)(F)F)cc1Cl` showed a solubility kinetic of 0.0406 mg/mL (≈ 148 µM).
For `Cc1cc(C)cc(CC2CC(=O)N(c3cc(C)ccc3C)C2=O)c1` (stereo not given), the solubility kinetic was 0.0175 mg/mL (≈ 54.4 µM).
Molecule `CCCn1c(C)nnc1SCC(=O)NC1CCCCC1` has a solubility kinetic greater than 0.0445 mg/mL.
`Cc1ccc(C(=O)NCCNC(=O)c2ccco2)cn1` gave a solubility kinetic of 0.0317 mg/mL (≈ 116 µM).
`Cc1nc2ccc(C(=O)N3CCN(Cc4ccccc4)CC3)cc2[nH]1` showed a solubility kinetic of 0.0497 mg/mL (≈ 149 µM).
In the case of `O=C(Nc1ccc2c(c1)OCCO2)c1ccc(Cl)cc1`, the solubility kinetic is reported as 0.0021 mg/mL (≈ 7.25 µM).
For `CC1CCCC(C)N1C(=O)COC(=O)Cc1ccc(Cl)cc1` (stereo not given), the solubility kinetic was greater than 0.0486 mg/mL.
Work on `Cc1ccc(N2CC(C(=O)Nc3cccnc3)CC2=O)cc1C` (stereo not given) yielded a solubility kinetic of 0.0313 mg/mL (≈ 101 µM).
`COc1ccc(CNC(=O)Cn2ccc([N+](=O)[O-])n2)cc1OC` showed a solubility kinetic greater than 0.048 mg/mL.
For `COc1ccc2oc(=N)c(C(=O)NCc3ccccc3)cc2c1`, the solubility kinetic was 0.0031 mg/mL (≈ 10.1 µM).
With `Cc1cccnc1NC(=O)c1ccc(Cl)c(S(=O)(=O)N2CCCC2)c1` the solubility kinetic was greater than 0.057 mg/mL.
Work on `NC(=O)NC(=O)CN1C(=O)NC2(CCOc3ccccc32)C1=O` (stereo not given) yielded a solubility kinetic greater than 0.0477 mg/mL.
Molecule `CCCCN1C(C(=O)Nc2cc(C)on2)=C(O)c2ccccc2S1(=O)=O` has a solubility kinetic greater than 0.0566 mg/mL.
Molecule `CCC(C)NC(=O)Cc1c(OC)ccc2cc(Br)ccc12` (stereo not given) has a solubility kinetic of less than 0.0008 mg/mL.
Work on `CCCn1cnc2cc(NCc3ccccc3O)ccc21` yielded a solubility kinetic of 0.0283 mg/mL (≈ 101 µM).
Molecule `Nc1ncc2c(n1)CCN(c1ccc([N+](=O)[O-])cc1)C2` has a solubility kinetic of 0.0059 mg/mL (≈ 21.7 µM).
`Nc1ncnc2c1ncn2Cc1ccccc1` showed a solubility kinetic greater than 0.0338 mg/mL.
`O=C(OCc1csc(-c2ccccc2)n1)c1ccccc1O` gave a solubility kinetic of less than 0.0007 mg/mL.
For `CS(=O)(=O)N1Cc2ccccc2CC1C(=O)O` (stereo not given), the solubility kinetic was greater than 0.0383 mg/mL.
With `CN(C)c1cccc2c(C#N)ccc(N(C)C)c12` the solubility kinetic was less than 0.0002 mg/mL.
With `CN(c1ccccc1)S(=O)(=O)c1cccc(NC(=O)C2CCCO2)c1` (stereo not given) the solubility kinetic was greater than 0.0541 mg/mL.
Work on `CCC(=O)N=c1ccn(C2=Nc3ccccc3NC2=C(C#N)C#N)cc1` yielded a solubility kinetic of 0.0309 mg/mL (≈ 90.3 µM).
Work on `O=C(Nc1ccccc1)C1CCCCN1S(=O)(=O)c1ccccc1` (stereo not given) yielded a solubility kinetic greater than 0.0517 mg/mL.
Molecule `Cc1ccc(N(CCC#N)C(=O)COC(=O)c2ccccn2)cc1` has a solubility kinetic greater than 0.0485 mg/mL.
`O=C(c1ccccc1)c1c[nH]c2ccccc12` showed a solubility kinetic of 0.0019 mg/mL (≈ 8.59 µM).
Work on `Cc1c(NS(=O)(=O)c2cccc(C(=O)N3CCC(C(N)=O)CC3)c2)c(=O)n(-c2ccccc2)n1C` yielded a solubility kinetic greater than 0.0746 mg/mL.
Work on `COc1ccc(OCC(=O)Nc2ccc(S(=O)(=O)N(C)c3ccccc3)cc2)cc1` yielded a solubility kinetic of 0.0018 mg/mL (≈ 4.22 µM).
`CC1(NC(=O)C2CCCCC2)CCS(=O)(=O)C1` (stereo not given) gave a solubility kinetic of 0.0351 mg/mL (≈ 135 µM).
In the case of `O=C(NCCNc1ccc([N+](=O)[O-])cc1)c1ccc(Cl)cc1`, the solubility kinetic is reported as 0.0019 mg/mL (≈ 5.94 µM).
